Measurements: ChEMBL document CHEMBL1126335, “Aryl cyanoguanidine potassium channel openers” (Bioorg Med Chem Lett, 1992)
Several values for one entry are separate records, joined by “and”; a condition that tells them apart may be missing. Equal values may be shown once.

What was measured:
Type in all cases: functional
[1] = species: Rattus norvegicus; assay: Vasorelaxant potency required to relax methoxamine contracted male Wistar Kyoto rat thoracic aorta
[2] = system: Rattus norvegicus; assay: Antihypertensive activity expressed as percent maximum decrease in blood pressure at 45 umol/Kg for 0-6 hrs in spontaneously hypertensive male rats when administered perorally
[3] = system: Rattus norvegicus; assay: Antihypertensive activity expressed as percent maximum decrease in blood pressure at 45 umol/kg for 12-18 hrs in spontaneously hypertensive male rats when administered perorally
[4] = system: Rattus norvegicus; assay: Antihypertensive activity expressed as percent maximum decrease in blood pressure at 45 umol/kg for 18-24 hrs in spontaneously hypertensive male rats when administered perorally
[5] = system: Rattus norvegicus; assay: Antihypertensive activity expressed as percent maximum decrease in blood pressure at 45 umol/kg for 6-12 hrs in spontaneously hypertensive male rats when administered perorally

SMILES | IC50 [1] [nM] | Max decrease [2] [%] | Max decrease [3] | Max decrease [4] [%] | Max decrease [5] [%]
CCC(C)(C)/N=C(\NC#N)NCc1ccc(C#N)cc1 | 1500 | – | – | – | –
CC(/N=C(\NC#N)Nc1cccc([N+](=O)[O-])c1)C(C)(C)C (centres undefined) | 170 | – | – | – | –
CC(/N=C(\NC#N)Nc1ccc(C#N)cc1)C(C)(C)C (centres undefined) | 22 | 33 | 26% | 25 | 26
CC(C)(C)/N=C(\NC#N)Nc1ccc(C#N)cc1 | 430 | – | – | – | –
CC(/N=C(\NC#N)Nc1ccccc1[N+](=O)[O-])C(C)(C)C (centres undefined) | 240 | – | – | – | –
CC(/N=C(\NC#N)Nc1ccc([N+](=O)[O-])cc1)C(C)(C)C (centres undefined) | 5150 | – | – | – | –
C/N=C(\NC#N)Nc1ccc(C#N)cc1 | 123000 | – | – | – | –
CC(C)/N=C(\NC#N)Nc1ccc(C#N)cc1 | 19000 | – | – | – | –
CCC(C)(C)/N=C(\NC#N)Nc1ccc(C#N)cc1 | 120 | – | – | – | –
CC(/N=C(\NC#N)Nc1cccc(C#N)c1)C(C)(C)C (centres undefined) | 420 | – | – | – | –
CC(/N=C(\NC#N)Nc1ccccc1)C(C)(C)C (centres undefined) | 880 | – | – | – | –
CC1(C)Oc2ccc(C#N)cc2[C@@H](N2CCCC2=O)[C@@H]1O [CROMAKALIM] | 55 | 63 | 37% | 42 | 35
CC(N/C(=N\C#N)Nc1ccncc1)C(C)(C)C (centres undefined) [PINACIDIL ANHYDROUS] | 70 | 40 | 21% and 23% | 14 | –
